In assay [1] the test system is colon cancer cells (HCT116). The assay can be described thus: Cancer cell line growth inhibition, Sulforhodamine B assay, HCT116. It counts as cell-based. As to conditions: Homo sapiens, HCT-116, HCT116 colon cancer cell line; read-out: Cancer Cell Line GI50 Range HCT116. The method in brief:
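HCT116 cells, 1000–4000 per well, seeded 24 h ahead, then treated 5 days with compound at 10 nM to 50 μM final in DMEM with 10% FBS. Growth measured by sulforhodamine B staining after TCA fixation, A570; GI50 from inhibition relative to DMSO-only cells.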

In assay [2] the test system is Colon 12 tumor initiating cells. As to the kind of experiment: Tumor-initiating cell growth inhibition, Alamar Blue assay, colon TICs. It counts as cell-based. Conditions: 216 h; Colon 12 TICs, 9 days; read-out: Tumor Initiating Cell GI50 Range Colon 12. The text has this: (§1) Non-tissue or tissue cultured treated T-75 flask and 96-well plates were purchased from VWR. Vitamin B-27 supplement, MEM NEAA (minimum essential medium non essential amino acids), sodium pyruvate, L-glutamine, N2 supplement, penicillin-streptomycin and fungizone/amphotericin B were obtained from Invitrogen. Lipid mixture, heparin and EGF were purchased from Sigma; bFGF from BD Biosciences. Tumor Initiating Cells (TICs) from colon were routinely maintained using non-tissue cultured treated T-75 flasks in DMEM:F12 medium containing 0.2XB-27 supplement, 4 ug/ml heparin, 1×MEM NEAA, 1×sodium pyruvate, 1 mM glutamine, 10 pg/ul bFGF, 20 pg/ul EGF, 1× N2 supplement, lipid mixture, penicillin-streptomycin and fungizone/amphotericin B. Ovarian TICs were routinely maintained using tissue cultured treated T-75 flasks in DMEM:F12 medium containing IXB-27 supplement, 4 ug/ml heparin, 20 pg/ul bFGF, 20 pg/ul EGF and penicillin-streptomycin.
(§2) Compounds described herein were dissolved in DMSO and further diluted in cell culture medium for GI50 determination. Colon TICs were trypsinized and seeded into non-tissue cultured treated 96-well plates with 4,000 cells/well. After 24 h, compound was added into the cell culture at different concentrations, and the final concentration of DMSO was adjusted to 0.1%. Cells were then cultured at 37° C. for 9 days. Ovarian TICs were trypsinized and seeded into tissue cultured treated 96-well plates with 1,000 cells/well. After 24 h, compound was added into the cell culture at different concentrations, and the final concentration of DMSO was adjusted to 0.1%. Cells were then cultured at 37° C. for 6 days. Cell viability was assessed by Alamar Blue assay: 10 ul of Alamar Blue was added into each well. After 4 hours incubation at 37° C., fluorescence was recorded at excitation 544 and emission 590. GI50 (Growth inhibition) was calculated using GraphPad Prism 4.0 software.
(§3) In Table 1 below, GI50 value ranges for compound examples against TICs (Colon 12 and Ovarian 2393A) are given.

For assay [3], the system named is Ovarian 2393A tumor initiating cells. As to the kind of experiment: Tumor-initiating cell growth inhibition, Alamar Blue assay, ovarian TICs. It counts as cell-based. As to conditions: 144 h; Ovarian 2393A TICs, 6 days; read-out: Tumor Initiating Cell GI50 Range Ovarian 2393A.
Source text: as §1, §2, §3

Assay [4] relates to breast cancer cells (MDA-MB-468). As to the kind of experiment: Cancer cell line growth inhibition, Sulforhodamine B assay, MDA-MB-468. It counts as cell-based. As to conditions: Homo sapiens, MDA-MB-468, MDA-MB-468 breast cancer cell line; read-out: Cancer Cell Line GI50 Range MDA-MB-468. The method in brief: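 MDA-MB-468 cells exposed 5 days to compound at final 10 nM to 50 μM in DMEM with 10% FBS. Growth measured by sulforhodamine B protein staining after TCA fixation, absorbance 570 nm; inhibition relative to DMSO-only cells, GI50 determined for cytotoxic compounds.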

Another assay has as its target T1, human TTK (Homo sapiens, UniProt P33981).
T1 construct: Active TTK was purchased from Invitrogen as an amino terminal GST fusion of full length human TTK; purchased Invitrogen
T1 sequence (P33981 1-857): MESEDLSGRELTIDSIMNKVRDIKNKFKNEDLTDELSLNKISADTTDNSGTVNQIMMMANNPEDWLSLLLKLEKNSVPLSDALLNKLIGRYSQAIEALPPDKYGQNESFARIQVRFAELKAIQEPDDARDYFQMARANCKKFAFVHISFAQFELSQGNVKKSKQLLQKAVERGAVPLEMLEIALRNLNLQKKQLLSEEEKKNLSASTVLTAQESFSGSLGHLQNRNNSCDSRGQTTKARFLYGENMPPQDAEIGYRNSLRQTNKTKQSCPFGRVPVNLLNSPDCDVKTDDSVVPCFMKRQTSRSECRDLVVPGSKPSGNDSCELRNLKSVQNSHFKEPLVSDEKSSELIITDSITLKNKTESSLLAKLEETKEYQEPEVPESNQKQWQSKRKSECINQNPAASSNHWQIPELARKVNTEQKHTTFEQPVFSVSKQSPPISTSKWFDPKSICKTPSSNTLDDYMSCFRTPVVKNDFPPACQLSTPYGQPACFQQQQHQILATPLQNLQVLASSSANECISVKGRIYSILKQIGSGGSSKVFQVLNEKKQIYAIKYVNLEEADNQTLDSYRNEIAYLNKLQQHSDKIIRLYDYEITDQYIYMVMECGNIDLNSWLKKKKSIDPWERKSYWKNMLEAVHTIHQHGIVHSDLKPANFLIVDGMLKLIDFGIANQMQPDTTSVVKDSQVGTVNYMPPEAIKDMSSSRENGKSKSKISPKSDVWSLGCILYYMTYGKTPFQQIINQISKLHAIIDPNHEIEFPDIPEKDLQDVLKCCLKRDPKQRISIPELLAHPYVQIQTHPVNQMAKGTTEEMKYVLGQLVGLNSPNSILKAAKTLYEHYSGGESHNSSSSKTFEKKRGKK
As to the kind of experiment: TTK inhibition assay (indirect ELISA). It counts as biochemical. A digest of the protocol:
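Activity detected by indirect ELISA after compounds sat with full-length GST-TTK for 5 min prior to starting the reaction with ATP. IC50 came from a four-parameter logistic curve of % inhibition, calculated against background and uninhibited control wells.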

In assay [5] the test system is ovarian cancer cells (OVCAR-3). As to the kind of experiment: Cancer cell line growth inhibition, Sulforhodamine B assay, OVCAR-3. It counts as cell-based. As to conditions: Homo sapiens, OVCAR-3, OVCAR-3 ovarian cancer cell line; read-out: Cancer Cell Line GI50 Range OVCAR-3. The method in brief: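 OVCAR-3 cells were seeded 24 h before compound addition, then exposed for 5 days to final concentrations of 10 nM to 50 μM in DMEM with 10% FBS. Growth was measured by TCA fixation and sulforhodamine B staining with absorbance at 570 nm. Inhibition was relative to DMSO-only cells, and GI50 came from curve fitting.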

Where [6] appears, read: 100 μM ATP, read-out: TTK IC50 Range.
The mark [7] stands for this setting: 16 μM ATP (Sigma cat# A7699), read-out: TTK IC50 Range (denoted with an asterisk).

SMILES strings stand for the structures. pIC50: −log10 of the molar value. Read-outs that look alike come from different tables or passages of the source. Some results are limits rather than exact numbers.

With `Cc1cc(-c2cnn3c(NCC4CCOCC4)cc(N[C@@H](C4CC4)C(C)(C)O)nc23)ccc1C(=O)NC1CC1` [Example C41, (S)-N-cyclopropyl-4-(5-((1-cyclopropyl-2-hydroxy-2-methylpropyl)amino)-7-(((tetrahydro-2H-pyran-4-yl)methyl)amino)pyrazolo[1,5-a]pyrimidin-3-yl)-2-methylbenzamide], the GI50 was no more than 0.1 µM in assay [1]; no more than 0.1 µM in assay [2]; 0.1 to 0.5 µM in assay [3]; no more than 0.1 µM in assay [4]; no more than 0.1 µM in assay [5]. Moreover, the pIC50 on human TTK (setting [6]) is greater than 7.00.

For `Cc1cc(-c2cnn3c(NCCN4CCOCC4)nc(Oc4cccc(F)c4F)nc23)ccc1C(=O)NC1CC1` [Example C26], the GI50 was no more than 0.1 µM in assay [1]; no more than 0.1 µM in assay [2]; no more than 0.1 µM in assay [3]; 0.1 to 0.5 µM in assay [4]; 0.1 to 0.5 µM in assay [5]. The negative-log IC50 (pIC50) on human TTK (setting [7]) was greater than 7.00.

`Cc1cc(-c2cnn3c(NCCN4CCOCC4)cc(Oc4cccc(F)c4)nc23)ccc1C(=O)NC1CC1` [Example C31, N-cyclopropyl-4-(5-(3-fluorophenoxy)-7-((2-morpholinoethyl)amino)pyrazolo[1,5-a]pyrimidin-3-yl)-2-methylbenzamide]: the concentration for 50% growth inhibition (GI50) in assay [1], in assay [2], in assay [3], in assay [4] and in assay [5] was no more than 0.1 µM throughout. Besides, on human TTK (setting [6]), the pIC50 was greater than 7.00.

For `Cc1cc(-c2cnn3c(NCC4CCOCC4)cc(N[C@@H]4CCCC[C@@H]4O)nc23)ccc1C(=O)NC1CC1` [Example C118], the GI50 is no more than 0.1 µM in assay [1]; 0.1 to 0.5 µM in assay [2]; 0.1 to 0.5 µM in assay [3]; 0.1 to 0.5 µM in assay [4]; 0.1 to 0.5 µM in assay [5]. The pIC50 at human TTK (setting [6]) is greater than 7.00.

Consider `Cc1cc(-c2cnn3c(NCC4CCOCC4)nc(Oc4cccc(F)c4)nc23)ccc1C(=O)NC1CC1` [Example C21], for which the GI50 in assay [1], in assay [2], in assay [3], in assay [4] and in assay [5] was no more than 0.1 µM throughout. Besides, the pIC50 on human TTK (setting [7]) was greater than 7.00.

As for `Cc1cc(-c2cnn3c(NCCN4CCC(O)CC4)cc(Oc4cccc(F)c4)nc23)ccc1C(=O)NC1CC1` [Example C182], the GI50 in assay [1], in assay [2], in assay [3], in assay [4] and in assay [5] was no more than 0.1 µM in each case. Further, the pIC50 at human TTK (setting [6]) was greater than 7.00.

In the case of `Cc1cc(-c2cnn3c(NCCN(C)C)cc(Oc4cccc(F)c4)nc23)ccc1C(=O)NC1CC1` [Example C187], the GI50 in assay [1] was no more than 0.1 µM; in assay [2] it was no more than 0.1 µM; in assay [3], no more than 0.1 µM; in assay [4], no more than 0.1 µM; in assay [5], 0.1 to 0.5 µM. Further, at human TTK (setting [6]), the negative-log IC50 (pIC50) was greater than 7.00.

As to `Cc1cc(-c2cnn3c(NCC4(F)CCN(C)CC4)cc(Oc4cccc(F)c4)nc23)ccc1C(=O)NC1CC1` [Example C28], the GI50 in assay [1], in assay [2], in assay [3], in assay [4] and in assay [5] was no more than 0.1 µM each time. The pIC50 on human TTK (setting [6]) is greater than 7.00.

For the compound `COc1ccc(Oc2nc(NCC3CCOCC3)n3ncc(-c4ccc(C(=O)NC5CC5)c(C)c4)c3n2)c(F)c1` [Example C25], the GI50 in assay [1] was no more than 0.1 µM; in assay [2], no more than 0.1 µM; in assay [3], 0.1 to 0.5 µM; in assay [4] it was 0.1 to 0.5 µM; in assay [5], 0.1 to 0.5 µM. The negative-log IC50 (pIC50) at human TTK (setting [7]) was greater than 7.00.

On to `Cc1cc(-c2cnn3c(NCC4CCOCC4)nc(Oc4ccccc4F)nc23)ccc1C(=O)NC1CC1` [Example C20], for which the GI50 in assay [1] was no more than 0.1 µM; in assay [2] it was no more than 0.1 µM; in assay [3], 0.1 to 0.5 µM; in assay [4], 0.1 to 0.5 µM; in assay [5], 0.1 to 0.5 µM. The pIC50 on human TTK (setting [7]) is greater than 7.00.

For the compound `Cc1cc(-c2cnn3c(NCC4CCOCC4)cc(N[C@H]4CCN(C5COC5)C4)nc23)ccc1C(=O)NC1CC1` [Example C120], the GI50 is 0.1 to 0.5 µM in assay [1]; greater than 0.5 µM in assay [2]; greater than 0.5 µM in assay [3]; 0.1 to 0.5 µM in assay [4]; greater than 0.5 µM in assay [5]. Also, the pIC50 on human TTK (setting [6]) was greater than 7.00.

Take `Cc1cc(-c2cnn3c(NCC4(F)CCNCC4)cc(Oc4cccc(F)c4)nc23)ccc1C(=O)NC1CC1` [Example C146]: the GI50 in assay [1] was no more than 0.1 µM; in assay [2], no more than 0.1 µM; in assay [3], no more than 0.1 µM; in assay [4], no more than 0.1 µM; in assay [5] it was 0.1 to 0.5 µM. Besides, the pIC50 on human TTK (setting [6]) is greater than 7.00.

For the compound `Cc1cc(-c2cnn3c(NCC4CCOCC4)cc(-c4ccncc4)nc23)ccc1C(=O)NC1CC1` [Example C150], the GI50 in assay [1], in assay [2], in assay [3], in assay [4] and in assay [5] was 0.1 to 0.5 µM each time. Moreover, at human TTK (setting [6]), the pIC50 is greater than 7.00.

As to `Cc1cc(-c2cnn3c(NC[C@H]4CC[C@H](O)CC4)cc(Oc4cccnc4)nc23)ccc1C(=O)NC1CC1` [Example C177], the GI50 is 0.1 to 0.5 µM in assay [1]; no more than 0.1 µM in assay [2]; no more than 0.1 µM in assay [3]; 0.1 to 0.5 µM in assay [4]; 0.1 to 0.5 µM in assay [5]. At human TTK (setting [6]), the pIC50 was greater than 7.00.

As for `O=C(NC1CC1)c1ccc(-c2cnn3c(NCC4CCOCC4)nc(Oc4ccccc4)nc23)cc1F` [Example C7], the GI50 in assay [1] is greater than 0.5 µM; in assay [2] it was 0.1 to 0.5 µM; in assay [3], 0.1 to 0.5 µM; in assay [4], greater than 0.5 µM; in assay [5], greater than 0.5 µM. In addition, the pIC50 at human TTK (setting [7]) is greater than 7.00.

Source of the values: patent publication US9573954B2, “Pyrazolopyrimidine compounds” (University Health Network, priority 2012, dated 2017).
